Source: US12171229B2, “Heteroaryl-triazole and heteroaryl-tetrazole compounds as pesticides” (BAYER AKTIENGESELLSCHAFT, priority 2018, dated 2024)

Assays:
Type in all cases: in vivo
Diabrotica balteata = Diabrotica balteata spray test; conditions: Diabrotica balteata, in Triticum aestivum, 168 h, after 7 days, larvae on wheat seeds, read-out: efficacy (seedlings grown up); for pest or weed control at 160 µg/disc, 500 g/ha: 160 μg/well (=500 g/ha); for pest or weed control at 80 µg/disc, 250 g/ha: 80 μg/well (=250 g/ha)
In short: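 Scoring at 7 days compares seedling growth with untreated, uninfested controls (100% = equal growth, 0% = none grown). Wheat seedlings germinated 1 day on agar, 5 per well, received a spray of test solution made in 1000 ppm emulsifier water. Each unit then received 10–20 beetle larvae.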

Meloidogyne incognita = Meloidogyne incognita test; conditions: 20 ppm; after 14 days; salad seedlings
Procedure: Meloidogyne incognita—Test Solvent: 125.0 parts by weight of acetone To produce a suitable preparation of active compound, 1 part by weight of active compound is mixed with the stated amount of solvent, and the concentrate is diluted with water to the desired concentration. Vessels are filled with sand, a solution of the active ingredient, a suspension containing eggs and larvae of the southern root-knot nematode (Meloidogyne incognita) and salad seeds. The salad seeds germinate and the seedlings grow. Galls develop in the roots. After 14 days the nematicidal activity is determined on the basis of the percentage of gall formation. 100% means no galls were found and 0% means the number of galls found on the roots of the treated plants was equal to that in untreated control plants.

Ctenocephalides felis [1] = assay: Ctenocephalides felis in-vitro contact test, adult cat flea; conditions: 5 μg/cm^2 (=500 g/ha), after 48 hours, adult cat fleas, read-out: efficacy (fleas dead or moribund)
In short: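 Compound in acetone coated onto inner walls of glass tubes, e.g. 900 ppm giving 5 μg/cm². After drying, 5–10 adult C. felis added per tube and held at room temperature. At 48 h, fleas unable to escape a 45–50 °C heating plate within 5 min scored dead/moribund, giving % efficacy.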

Boophilus microplus = Boophilus microplus injection test; conditions: Rhipicephalus microplus, 168 h; 20 μg/animal injected into the abdomen; adult engorged female ticks; egg deposition after 7 days; read-out: efficacy (infertile eggs)
In short: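 Efficacy, from 0% (all eggs fertile) to 100% (all infertile), was scored on eggs laid by five engorged adult females. Each female was injected intra-abdominally with 1 μl of compound solution in DMSO. Fertile egg laying was checked at 7 days, with uncertain eggs kept until hatching at about 42 days.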

Ctenocephalides felis [2] = assay: Ctenocephalides felis oral test; conditions: 48 h, 100 ppm in cattle blood, after 2 days, adult unfed cat fleas
In short: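 Compound dissolved in DMSO and diluted in cattle blood to test concentration, offered to ~20 unfed adult fleas via a parafilm-sealed blood chamber held at 37° C (fleas at room temperature). Kill recorded at 2 days as % mortality.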

Myzus persicae [3] = assay: Myzus persicae oral test; conditions: 120 h, after 5 days
In short: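 Aphid mortality (%) was recorded 5 days after a mixed Myzus persicae population began sucking, through parafilm, on compound solutions (acetone stock diluted with water) combined with sugar-supplemented IPL41 medium.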

Phaedon cochleariae = Phaedon cochleariae spray test; conditions: foliar, 168 h, after 7 days, larvae on Chinese cabbage leaf disks
Procedure: Phaedon Cochleariae—Spray Test
(§1) To produce a suitable preparation of active compound, 1 part by weight of active compound is mixed with the stated amount of solvents and is diluted with water, containing an emulsifier concentration of 1000 ppm, to the desired concentration. Further test concentrations are prepared by dilution with emulsifier containing water.
Chinese cabbage (Brassica pekinensis) leaf disks are sprayed with a preparation of the active ingredient of the desired concentration. Once dry, the leaf disks are infested with mustard beetle larvae (Phaedon cochleariae).
After 7 days mortality in % is determined. 100% means all beetle larvae have been killed and 0% means none of the beetle larvae have been killed.

Spodoptera frugiperda = Spodoptera frugiperda spray test; conditions: 168 h, after 7 days, larvae on maize leaf sections
In short: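 Leaf-spray assay on maize: sections treated with active ingredient at the desired concentration in emulsifier-containing water (1000 ppm) and, once dry, exposed to armyworm caterpillars. Kill rate is expressed in percent after seven days.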

Tetranychus urticae = Tetranychus urticae spray test (OP-resistant); conditions: foliar, 144 h, after 6 days, French bean leaf disks
Procedure: Tetranychus urticae—Spray Test (OP-Resistant)
as §1
French bean (Phaseolus vulgaris) leaf disks infected with all instars of the two spotted spidermite (Tetranychus urticae), are sprayed with a preparation of the active ingredient of the desired concentration.
After 6 days mortality in % is determined. 100% means all spider mites have been killed and 0% means none of the spider mites have been killed.

Nezara viridula = Nezara viridula spray test; conditions: 96 h, after 4 days, larvae on barley plants
In short: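 Mortality (%) was assessed at day 4, from 0% (no bugs dead) to 100% (all dead). The spray solution was compound diluted to test concentration in water with 1000 ppm emulsifier and applied to barley carrying southern green stink bug larvae.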

Rhipicephalus sanguineus = Rhipicephalus sanguineus in-vitro contact test, adult brown dog ticks; conditions: 5 μg/cm^2 (=500 g/ha), after 48 hours, read-out: efficacy (ticks dead or moribund)
Procedure: Rhipicephalus Sanguineus—In-Vitro Contact Tests with Adult Brown Doe Ticks
9 mg compound is solved in 1 ml acetone and diluted with acetone to the desired concentration. 250 μl of the test solution is filled in 25 ml glass test tubes and homogeneously distributed on the inner walls by rotation and tilting on a shaking device (2 h at 30 rpm). With a compound concentration of 900 ppm, an inner surface of 44.7 cm^2 and a homogeneous distribution, a dose of 5 μg/cm^2 is achieved.
After the solvent has evaporated, each test tube is filled with 5-10 adult brown dog ticks (Rhipicephalus sanguineus), closed with a perforated lid and incubated in a lying position at room temperature and relative humidity. After 48 hours efficacy is determined. The ticks are patted on the ground of the tubes and are incubated on a heating plate at 45-50° C. for at most 5 minutes. Immotile or uncoordinated moving ticks, which are not able to escape the heat by climbing upwards, are marked as dead or moribund.
An efficacy of 100% means all ticks are dead or moribund; 0% means no ticks are dead or moribund.

[4] = test system: Aedes aegypti strain MONHEIM; assay: Aedes aegypti test (AEDSAE surface treatment & contact assay); conditions: 24 hours after contact, read-out: efficacy (mortality)
In short: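 Compound dissolved in acetone (2 mg/ml) with 2000 ppm rapeseed oil methyl ester, applied to glazed tile and dried; adult strain MONHEIM mosquitoes exposed 30 minutes. Percent mortality scored 24 hours after contact.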

[5] = test system: Musca domestica strain WHO-N; assay: Musca domestica test (MUSCDO surface treatment & contact assay); conditions: surface concentration 20 mg/m^2, exposure 30 minutes, 24 hours after contact, read-out: efficacy (mortality)
Procedure: Musca domestica test (MUSCDO surface treatment & contact assay)
Solvent: Aceton+2000 ppm rapeseed oil methyl ester (RME)
In order to produce a sufficient, active ingredient containing solution it is necessary to solve the test compound in the solvent-mix (acetone at 2 mg/ml/RME 2000 ppm). This solution is pipetted onto a glazed tile and after evaporation of the acetone, adult flies of the species Musca domestica strain WHO-N are placed onto the dried surface. The exposure time is 30 minutes.
Mortality in percent (%) is determined 24 hours after contact of the insects to the treated surface. 100% morality means that all tested insects are dead, whereas 0% means that no insect died.

[6] = test system: cattle ticks (Boophilus microplus) strane Parhurst, SP-resistant; assay: Boophilus microplus dip test; conditions: Rhipicephalus microplus, 168 h, engorged adult female cattle ticks, egg deposition after 7 days, read-out: efficacy (infertile eggs)
Procedure: Boophilus microplus—Dip Test
Test animal: cattle ticks (Boophilus microplus) strane Parhurst, SP-resistant
Solvent: dimethyl sulfoxide
To produce a suitable preparation of active compound, 10 mg of active compound are dissolved in 0.5 ml solvent, and the concentrate is diluted with water to the desired concentration.
This compound solution is pipetted into tubes. 8-10 engorged, adult, female cattle ticks (Boophilus microplus) are placed in perforated tubes. These tubes are immersed in the aqueous compound solution until the ticks are completely moistened. After the liquid has drained off, the ticks are transferred to a filter paper in a plastic tray and stored in a climate chamber.
After 7 days egg deposition of fertile eggs is monitored. Eggs where fertility is not visible are stored in a climate chamber till hatching after about 42 days. An efficacy of 100% means all eggs are infertile; 0% means all eggs are fertile.

Nilaparvata lugens = Nilaparvata lugens spray test; conditions: 336 h, after 14 days, rice plants
Procedure: Nilaparvata lugens—Spray Test
as §1
Rice plants (Oryza sativa) are sprayed with a preparation of the active ingredient of the desired concentration and the plants are infested with the brown planthopper (Nilaparvata lugens).
After 14 days mortality in % is determined. 100% means all planthoppers have been killed and 0% means none of the planthoppers have been killed.

Myzus persicae [7] = assay: Myzus persicae spray test; conditions: foliar, 120 h, after 5 days, Chinese cabbage leaf disks
In short: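 Percent kill was recorded 5 days after spraying. Test solutions, prepared with solvent and diluted in 1000 ppm emulsifier water, were applied to Brassica pekinensis leaf disks carrying mixed-instar green peach aphids.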

SMILES | pest or weed control at 160 µg/disc, 500 g/ha (Diabrotica balteata) | nematicidal activity (gall formation) (Meloidogyne incognita) | pest or weed control at 5 µg/cm2 (Ctenocephalides felis [1]) | pest or weed control at 0.02 mg (Boophilus microplus) | mortality at 100 ppm (Ctenocephalides felis [2]) | pest or weed control at 80 µg/disc, 250 g/ha (Diabrotica balteata) | mortality at 20 ppm (Myzus persicae [3]) | mortality at 500 g/ha (Phaedon cochleariae) | mortality at 500 g/ha (Spodoptera frugiperda) | mortality at 500 g/ha (Nezara viridula) | mortality at 100 g/ha (Nezara viridula) | mortality at 100 g/ha (Spodoptera frugiperda) | pest or weed control at 5 µg/cm2 (Rhipicephalus sanguineus) | further results
COc1cc(C)nc(-n2ncnc2C(C)N(CC2CC2)C(=O)c2cc(Cl)cc(C(F)(F)F)c2)n1 (centres unmarked) [Example I-001] | 100% | 100% | – | – | – | – | – | – | – | – | – | – | – | –
Cc1cc(C)nc(-n2ncnc2C(C)N(CC2CC2)C(=O)c2cc(Cl)cc(C(F)(F)F)c2)n1 (centres unmarked) [Example I-002, 3-Chloro-N-(cyclopropylmethyl)-N-{1-[1-(4,6-dimethylpyrimidin-2-yl)-1H-1,2,4-triazol-5-yl]ethyl}-5-(trifluoromethyl)benzamide] | – | 90% | – | – | – | – | – | – | – | – | – | – | – | –
CC(c1ncnn1-c1nccs1)N(CC1CC1)C(=O)c1cc(Cl)cc(C(F)(F)F)c1 (centres unmarked) [Example I-003] | 100% | – | 100% | 100% | 100% | 100% | 90% | 100% | 100% | – | – | – | – | mortality at 500 g/ha (Tetranychus urticae): 90%
CC(c1ncnn1-c1nc2ccccn2n1)N(CC1CC1)C(=O)c1cc(Cl)cc(C(F)(F)F)c1 (centres unmarked) [Example I-005] | 100% | – | – | 100% | 100% | 100% | – | 100% | 100% | 100% | – | – | – | –
CC(c1ncnn1-c1ccn(C)n1)N(CC1CC1)C(=O)c1cc(Cl)cc(C(F)(F)F)c1 (centres unmarked) [Example I-006] | 100% | – | – | 100% | 100% | 100% | 100% | 100% | 100% | – | – | – | – | –
CC(c1ncnn1-c1ncc(C#N)cn1)N(CC1CC1)C(=O)c1cc(Cl)cc(C(F)(F)F)c1 (centres unmarked) [Example I-008] | 100% | – | – | – | – | 100% | 100% | 100% | 100% | 90% | 90% | 100% | – | –
C[C@H](NC(=O)c1cc(Cl)cc(C(F)(F)F)c1)c1ncnn1-c1ncc(C#N)cn1 [Example I-010] | – | 100% | 100% | 100% | – | – | – | – | 100% | 100% | 100% | 100% | 100% | mortality at 4 ppm (Myzus persicae [3]): 100%; mortality at 4 mg/m2 ([4]; surface concentration 4 mg/m^2, exposure 30 minutes): 90 to 100%; mortality at 20 mg/m2 ([4]; surface concentration 20 mg/m^2, exposure 30 minutes): 90 to 100%; mortality at 20 mg/m2 [5]: 90 to 100%
C[C@H](NC(=O)c1cc(Cl)cc(C(F)(F)F)c1)c1ncnn1-c1ncc(OC(F)F)cn1 [Example I-012] | 100% | – | 100% | 100% | 100% | 100% | – | – | 100% | 100% | 100% | 100% | 100% | pest or weed control at 100 ppm [6]: 95%; mortality at 500 g/ha (Nilaparvata lugens): 100%
C[C@H](NC(=O)c1cncc(C(F)(F)F)c1)c1ncnn1-c1ccc(C#N)cn1 [Example I-067] | 100% | – | 100% | 100% | 100% | 100% | – | – | 100% | 100% | 100% | 100% | 100% | mortality at 4 ppm (Myzus persicae [3]): 100%; mortality at 100 g/ha (Myzus persicae [7]; 100 g/ha): 90%; mortality at 500 g/ha (Myzus persicae [7]; 500 g/ha): 90%; mortality at 500 g/ha (Nilaparvata lugens): 90%
C[C@H](NC(=O)c1cc(Cl)cc(C(F)(F)F)c1)c1ncnn1-c1ccc(-n2cccn2)cn1 [Example I-074] | 100% | – | 80% | 100% | 80% | 100% | – | – | 100% | – | – | 100% | 80% | –
